From patent US20140357579A1, “SYNTHETIC PEPTIDE AMIDES AND DIMERS THEREOF” (priority 2006, published 2014)
Like-named read-outs stand apart in the source and are kept apart here. Square brackets hold non-standard residues; d marks the D form. Side chains are listed from the residue outwards. Peptide text beside a SMILES is read from it. dOrn = NCCC[C@@H](N)C(=O)O; Inp = O=C(O)C1CCNCC1

Assays:
Format in all cases: cell-based
[1] = molecular target: T1, human kappa opioid receptor (hKOR) (Homo sapiens, UniProt P41145); test: NFAT-luciferase reporter assay in HEK-293 cells transfected with human kappa opioid receptor and chimeric G-protein; details: for EC50: transfected HEK-293 cells, luciferase reporter
T1 construct: expressed in transfected cells; host or cells: HEK-293 cells (ATCC), transient transfection with pcDNA3-hOPRK1

[2] = molecular target: T2, mouse kappa opioid receptor (mKOR) (Mus musculus, UniProt P33534); test: Inhibition of forskolin-stimulated cAMP production in R1.G1 cells (TR-FRET cAMP immunoassay); details: for EC50: inhibition of forskolin-stimulated cAMP
T2 construct: a mouse thymoma cell line that expresses only the kappa-opioid receptor and no other opioid receptor subtype; host or cells: R1.G1 mouse thymoma cells

human mu opioid receptor = human mu opioid receptor (Homo sapiens, UniProt P35372); test: Similar assay for potency on the human mu opioid receptor
Procedure: Synthetic peptide amides of the invention were tested in a similar assay for potency on the human mu opioid receptor.
The synthetic peptide amide (53) was tested in a similar assay for potency on the human mu opioid receptor.

[3] = HEK293, percent maximal activation compared to full induction by known kappa agonists, read-out: hKOR Efficacy(%)
[4] = percent maximal activation compared to full induction by known kappa agonists
[5] = R1.G1 cells, read-out: mKOR EC50
[6] = R1.G1 cells, read-out: mKOR Efficacy(%)
[7] = HEK293, read-out: hKOR Efficacy(%), percent maximal activation compared to full induction by known kappa agonists
[8] = read-out: mKOR Efficacy(%), R1.G1 cells

T2 sequence (P33534 whole entry): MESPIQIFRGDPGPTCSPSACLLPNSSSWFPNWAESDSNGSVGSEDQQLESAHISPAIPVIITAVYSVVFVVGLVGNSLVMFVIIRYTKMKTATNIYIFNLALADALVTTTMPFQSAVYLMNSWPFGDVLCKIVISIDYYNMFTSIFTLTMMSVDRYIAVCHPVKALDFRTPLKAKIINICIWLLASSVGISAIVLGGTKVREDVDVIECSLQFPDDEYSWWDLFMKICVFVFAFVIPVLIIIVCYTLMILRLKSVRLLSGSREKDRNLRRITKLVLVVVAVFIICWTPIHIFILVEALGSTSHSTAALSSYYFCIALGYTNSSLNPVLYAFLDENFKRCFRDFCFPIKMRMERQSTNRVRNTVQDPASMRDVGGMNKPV
T1 sequence (P41145 whole entry): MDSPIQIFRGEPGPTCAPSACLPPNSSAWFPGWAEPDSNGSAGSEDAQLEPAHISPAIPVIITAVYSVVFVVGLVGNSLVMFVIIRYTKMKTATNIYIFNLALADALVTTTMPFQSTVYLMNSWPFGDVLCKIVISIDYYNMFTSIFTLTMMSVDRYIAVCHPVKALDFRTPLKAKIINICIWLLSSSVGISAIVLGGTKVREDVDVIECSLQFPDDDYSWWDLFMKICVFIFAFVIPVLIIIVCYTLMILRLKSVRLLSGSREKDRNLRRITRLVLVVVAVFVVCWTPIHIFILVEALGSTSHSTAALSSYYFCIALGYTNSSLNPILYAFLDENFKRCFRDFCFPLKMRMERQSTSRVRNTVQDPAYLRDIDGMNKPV
human mu opioid receptor, sequence (P35372 whole entry): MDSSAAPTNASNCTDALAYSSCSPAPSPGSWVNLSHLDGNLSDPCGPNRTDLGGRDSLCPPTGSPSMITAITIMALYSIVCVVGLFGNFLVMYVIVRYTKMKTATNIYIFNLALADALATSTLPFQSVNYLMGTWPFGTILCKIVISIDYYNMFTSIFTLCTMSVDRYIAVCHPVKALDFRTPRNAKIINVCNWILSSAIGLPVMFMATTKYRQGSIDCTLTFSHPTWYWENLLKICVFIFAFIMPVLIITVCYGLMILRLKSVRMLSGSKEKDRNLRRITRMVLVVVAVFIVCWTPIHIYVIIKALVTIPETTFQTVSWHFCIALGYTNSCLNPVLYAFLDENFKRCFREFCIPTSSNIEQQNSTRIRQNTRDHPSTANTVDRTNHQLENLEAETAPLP

Compound | Emax [1, 3] | mKOR Efficacy(%) ([2]; R1.G1 cells) | EC50 ([1]; read-out: hKOR EC50) | hKOR Efficacy(%) [1, 4] | further results
CCN1CCCN(C(=O)[C@@H](CCCN)NC(=O)[C@@H](CC(C)C)NC(=O)[C@@H](Cc2ccccc2)NC(=O)[C@H](N)Cc2ccccc2)CC1 [Compound 18, D-Phe-D-Phe-D-Leu-D-Orn-[4-ethylhomopiperazine amide]] | 99% | 99% |  |  | 
CC(C)C[C@@H](NC(=O)[C@@H](Cc1ccccc1)NC(=O)[C@H](N)Cc1ccccc1)C(=O)N[C@H](CCCN)C(=O)N1CCC(C(=O)O)CC1 [Compound 9, D-Phe-D-Phe-D-Leu-D-Orn-[Isonipecotic acid]-OH] (H-[dF][dF][dL][dOrn][Inp]-OH; N-terminus assumed) | 134% | 92% | 0.39 nM |  | 
CC(C)C[C@@H](NC(=O)[C@@H](Cc1ccccc1)NC(=O)[C@H](N)Cc1ccccc1)C(=O)N[C@H](CCCCN)C(=O)N1CCN(c2ncccn2)CC1 [Compound 26, D-Phe-D-Phe-D-Leu-D-Lys-[2-(piperazin-1-yl)pyrimidine amide]] |  | 78% |  | 98% | 
CC(C)C[C@@H](NC(=O)[C@@H](Cc1ccccc1)NC(=O)[C@H](N)Cc1ccccc1)C(=O)N[C@H](CCCN)C(=O)N1CCOC(C(=O)O)C1 (stereo partly drawn) [Compound 53, D-Phe-D-Phe-D-Leu-D-Orn-[R/S-2-carboxymorpholine]-OH] |  | 100% |  | 100% | EC50 (human mu opioid receptor): ≥ 1000 nM
CC(C)C[C@@H](NC(=O)[C@@H](Cc1ccccc1)NC(=O)[C@H](N)Cc1ccccc1)C(=O)N[C@H](CCCN)C(=O)NCCCC[C@H](NC(=O)[C@H](N)CCCN)C(=O)O [Compound 42] | 95% |  | 0.27 nM |  | EC50 [2, 5]: 0.24 nM; Emax [2, 6]: 97%
CC(C)C[C@@H](NC(=O)[C@@H](Cc1ccccc1)NC(=O)[C@H](N)Cc1ccccc1)C(=O)N[C@H](CCCN)C(=O)NCCN1CCN(CC(=O)O)CC1 [Compound 1, D-Phe-D-Phe-D-Leu-D-Orn-[4-(2-aminoethyl)-1-carboxymethyl-piperazine]-OH] |  | 98% | 0.49 nM | 102% | 
CC(C)C[C@@H](NC(=O)[C@@H](Cc1ccccc1)NC(=O)[C@H](N)Cc1ccccc1)C(=O)N[C@H](CCCN)C(=O)N1CCC(CC(=O)O)CC1 [Compound 2, D-Phe-D-Phe-D-Leu-D-Orn-[4-Carboxymethyl-piperidine]-OH] |  | 97% | 0.13 nM | 99% | 
CC(C)C[C@@H](NC(=O)[C@@H](Cc1ccccc1)NC(=O)[C@H](N)Cc1ccccc1)C(=O)N[C@H](CCCCN)C(=O)N1CCN(c2cnccn2)CC1 [Compound 27, D-Phe-D-Phe-D-Leu-D-Lys-[2-(piperazin-1-yl)pyrazine amide]] |  | 85% |  | 100% | 
CC(C)C[C@@H](NC(=O)[C@@H](Cc1ccccc1)NC(=O)[C@H](N)Cc1ccccc1)C(=O)N[C@H](CCCN)C(=O)NCCN1CCN(CC(N)=O)CC1 [Compound 13, D-Phe-D-Phe-D-Leu-D-Orn-[4-(2-aminoethyl)-1-carboxymethyl-piperazine]-NH2] |  | 96% |  | 96% | 
CC(C)C[C@@H](NC(=O)[C@@H](Cc1ccccc1)NC(=O)[C@H](N)Cc1ccccc1)C(=O)N[C@H](CCCN)C(=O)N1CCC(N)(C(=O)O)CC1 [Compound 6, D-Phe-D-Phe-D-Leu-D-Orn-[omega(4-Aminopiperidine-4-carboxylic acid)]-OH] |  | 100% | 0.17 nM | 107% | 
CC(C)C[C@@H](NC(=O)[C@@H](Cc1ccccc1)NC(=O)[C@H](N)Cc1ccccc1)C(=O)N[C@H](CCCCN)C(=O)N1CCN(C(=O)c2ccccc2)CC1 [Compound 33, D-Phe-D-Phe-D-Leu-D-Lys-[phenyl(piperazin-1-yl)methanone amide]] |  | 92% |  | 94% | 
CC(C)C[C@@H](NC(=O)[C@@H](Cc1ccccc1)NC(=O)[C@H](N)Cc1ccccc1)C(=O)N[C@H](CCCCN)C(=O)NCC1OCCO1 [Compound 25] |  | 85% |  | 98% | 
CC(C)C[C@@H](NC(=O)[C@@H](Cc1ccccc1)NC(=O)[C@H](N)Cc1ccccc1)C(=O)N[C@H](CCCN)C(=O)NCCCC[C@H](NC(=O)[C@@H](CCCN)NC(=O)[C@@H](CC(C)C)NC(=O)[C@@H](Cc1ccccc1)NC(=O)[C@H](N)Cc1ccccc1)C(N)=O [Compound 43] (H-[dF][dF][dL][dOrn]K([dOrn-dL-dF-dF])-NH2) |  |  |  |  | Emax [1, 7]: 94%; EC50 ([1]; hKOR EC50 (nM)): 0.13 nM; EC50 ([2]; mKOR EC50 (nM), R1.G1 cells): 0.08 nM; Emax [2, 8]: 101%
CC(C)C[C@@H](NC(=O)[C@@H](Cc1ccccc1)NC(=O)[C@H](N)Cc1ccccc1)C(=O)N[C@H](CCCCN)C(=O)N1CCN(S(=O)(=O)c2ccccc2)CC1 [Compound 32, D-Phe-D-Phe-D-Leu-D-Lys-[1-(phenylsulfonyl)piperazine amide]] |  | 87% |  | 101% | 
CNC(=N)N1CCCN(C(=O)[C@@H](CCCN)NC(=O)[C@@H](CC(C)C)NC(=O)[C@@H](Cc2ccccc2)NC(=O)[C@H](N)Cc2ccccc2)CC1 [Compound 19, D-Phe-D-Phe-D-Leu-D-Orn-[4-(N-methyl)amidinohomopiperazine amide]] | 93% | 101% | 0.21 nM |  | 
CC(C)C[C@@H](NC(=O)[C@@H](Cc1ccccc1)NC(=O)[C@H](N)Cc1ccccc1)C(=O)N[C@H](CCCN)C(=O)N1CCCNCC1 [Compound 11, D-Phe-D-Phe-D-Leu-D-Orn-[homopiperazine amide]] | 90% | 100% | 0.12 nM |  | 
CC(C)C[C@@H](NC(=O)[C@@H](Cc1ccccc1)NC(=O)[C@H](N)Cc1ccccc1)C(=O)N[C@H](CCCN)C(=O)N1CCNC(C(=O)O)C1 (stereo partly drawn) [Compound 8, D-Phe-D-Phe-D-Leu-D-Orn-[omega(D/L-piperazine-2-carboxylic acid)]-OH] |  | 102% | 0.16 nM | 93% | 
Cc1cnc(CNC(=O)[C@@H](CCCCN)NC(=O)[C@@H](CC(C)C)NC(=O)[C@@H](Cc2ccccc2)NC(=O)[C@H](N)Cc2ccccc2)cn1 [Compound 38] | 100% |  |  |  | Emax [2, 6]: 87%
CC(C)C[C@@H](NC(=O)[C@@H](Cc1ccccc1)NC(=O)[C@H](N)Cc1ccccc1)C(=O)N[C@H](CCCCN)C(=O)N1CCS(=O)(=O)CC1 [Compound 34, D-Phe-D-Phe-D-Leu-D-Lys-[thiolmorpholine-1,1-dioxide amide]] |  | 89% |  | 103% | 
CC(C)C[C@@H](NC(=O)[C@H](N)Cc1ccccc1)C(=O)N[C@H](CCCN)C(=O)N[C@@H](CCCCNC(=O)[C@@H](CCCN)NC(=O)[C@@H](CC(C)C)NC(=O)[C@@H](Cc1ccccc1)NC(=O)[C@H](N)Cc1ccccc1)C(=O)O [Compound 40] |  |  |  |  | Emax [1, 7]: 83%; EC50 ([1]; hKOR EC50 (nM)): 0.26 nM; Emax [2, 8]: 96%
CC(C)C[C@@H](NC(=O)[C@@H](Cc1ccccc1)NC(=O)[C@H](N)Cc1ccccc1)C(=O)N[C@H](CCCN)C(=O)N1CCCN(C(=N)N)CC1 [Compound 16, D-Phe-D-Phe-D-Leu-D-Orn-[4-Amidinohomopiperazine amide]] | 90% |  | 0.12 nM |  | Emax [2, 6]: 99%
CC(C)C[C@@H](NC(=O)[C@@H](Cc1ccccc1)NC(=O)[C@H](N)Cc1ccccc1)C(=O)N[C@H](CCCN)C(=O)NCCCC[C@H](NC(=O)[C@H](N)CCCN)C(=O)N1CCNCC1 [Compound 44] | 93% |  | 0.25 nM |  | EC50 [2, 5]: 1.3 nM; Emax [2, 6]: 91%
CC(C)C[C@@H](NC(=O)[C@@H](Cc1ccccc1)NC(=O)[C@H](N)Cc1ccccc1)C(=O)N[C@H](CCCN)C(=O)N1CCC(N2CCC[C@H]2C(N)=O)CC1 [Compound 14, D-Phe-D-Phe-D-Leu-D-Orn-[N-(4-piperidinyl)-L-proline]-NH2] | 105% | 96% | 0.21 nM |  | 
